# According to article PMC10508484, “Development and application of a PBPK modeling strategy to support antimalarial drug development” (CPT: Pharmacometrics & Systems Pharmacology, 2023):
# “And” between values parts separate entries of the source, which are not always exact repeats. Identical values can stand only once. Like-named read-outs stand apart in the source and are kept apart here.
# Legend:
# Caco-2 cells = details: cited from earlier work
# [1] = cited from earlier work; for CL renal: PBPK input, ref amodiaquine, DEAQ Winstanley et al., atovaquone Rolan et al., 1997 14, azithromycin Lalak et al., 1993 23, carboxyprimaquine Mihaly et al., 1987 29, DHA EMA Website, 44, mefloquine Schwartz et al., 1982 57, primaquine White, 1985 62, pyrimeth
# [2] = cited from earlier work
# [3] = cited from earlier work; for Log D pH 7.4: lumefantrine: ACD labs value, ref Charman et al., 2020 1
# [4] = PBPK input, cited from earlier work
# [5] = In vitro flags for victim and perpetrator properties conferring DDI liability; assay type: in vitro ADME, human; details: in vitro flag, mainly based on in vitro determinations
# [6] = Hepatic / HLM intrinsic clearance, enzyme not defined; details: human
# [7] = PBPK simulation of drug-drug interactions (Simcyp V19); parameters: species or system human; details: ratio of simulated to clinically observed AUC ratio; DDI of the respective line of Table S3
# Text: Here, we provide three example applications where the available PBPK models were used to address questions relating to DDI assessment. […] Additional simulation methods are provided in Appendix S1.
# All simulations, including the ones performed for the applications, were run using Version 19 of the Simcyp population-based PBPK simulator (Simcyp (Certara), Sheffield, UK) and unless stated otherwise, input parameters for all drugs are as specified (Supplementary Information Table S1). All simulations were run using ten virtual trials that were matched as closely as possible to the clinical study volunteers in terms of the number of subjects, their age, the proportion of males/females and according to the same study design.
# [8] = cited from earlier work; remark: listed apart in the source
# [9] = ref Charman et al., 2020 1; cited from earlier work
# [10] = 1987 9, 1985 26, chloroquine Walker et al., doxycycline Raghuram et al., 1982 48, Nguyen et al., 1989 49, proguanil Jeppesen et al., 1997 34
# [11] = midazolam 7.5 mg QD + piperaquine 960 mg QD, ref Eurartesim - EMA Website, 12
# [12] = midazolam 15 mg SD (Day 3) + azithromycin 500 mg QD (3 Days), ref Yeates et al., 1996 6
# [13] = midazolam 15 mg SD (Day 3) + azithromycin 500 mg QD (3 Days), ref Zimmermann et al., 1996 7
# [14] = midazolam 15 mg SD (Day 5) + azithromycin 500 mg QD (Day 1), 250 mg (Days 2-5), ref Backman et al., 1995 5
smiles,measurement,setting,value
"CC(C)NCC(O)COc1cccc2ccccc12 (stereo not shown) [Propranolol, propranolol]",Papp A-B of calibrator,Caco-2 cells; Caco-2,72 10-6 cm/s
"C[C@H]1c2cccc(O)c2C(=O)C2=C(O)[C@]3(O)C(=O)C(C(N)=O)=C(O)[C@@H](N(C)C)[C@@H]3[C@@H](O)[C@@H]21 [Doxycycline, doxycycline]",CL renal,[1]; [10],0.87 L/h
same,CL IV,"[1]; clinically observed, ref atovaquone Lavelle et al., 1994 17, chloroquine Walker et al., 1987 29, Gustafsson et al., 1983 30, doxycycline Raghuram et al., 1982 48, Nguyen et al., 1989 49, primaquine Mihaly et al., 1985 26, quinine White et al., 1983 77, Paintaud et al., 1993 78",2.77 L/h
same,AUC Obs,"[2]; 100 mg SD, 0-inf, first line, ref Malmborg, 1984 25",40.1 µg·h/mL
same,AUC Obs,"[2]; 100 mg SD, 0-inf, ref Grahnen et al., 1994 24",29.9 µg·h/mL
same,AUC Obs,"[2]; 100 mg SD, 0-inf, second line, ref Malmborg, 1984 25",37.4 µg·h/mL
same,Cmax Obs,"[2]; 100 mg SD, ref Grahnen et al., 1994 24",1750 ng/mL
same,AUC Obs,"[2]; 100 mg q24h, 312-408 h, ref Binh et al., 2009 28",37.3 µg·h/mL
same,Cmax Obs,"[2]; 100 mg q24h, ref Binh et al., 2009 28",3260 ng/mL
same,AUC Obs,"[2]; 200 mg SD, 0-inf, ref Wojcicki et al., 1985 26",40.9 µg·h/mL
same,Cmax Obs,"[2]; 200 mg SD, ref Wojcicki et al., 1985 26",2610 ng/mL
same,AUC Obs,"[2]; 200 mg q24h, malaria-infected, 0-24 h, ref Newton et al., 2005 27",32.0 µg·h/mL
same,AUC Obs,"[2]; 200 mg q24h, malaria-infected, 144-168 h, ref Newton et al., 2005 27",48.6 µg·h/mL
same,Cmax Obs,"[2]; 200 mg q24h, malaria-infected, window 0-24 h, ref Newton et al., 2005 27",3170 ng/mL
same,Cmax Obs,"[2]; 200 mg q24h, malaria-infected, window 144-168 h, ref Newton et al., 2005 27",4440 ng/mL
same,Log D pH 7.4,[3],-0.2
same,fu,"[4]; ref Charman et al., 2020 1",0.23
same,Risk as a perpetrator,[5],None identified
same,Risk as a victim,[5],Cleared by renal and biliary excretion
"COc1cc(NC(C)CCC(=O)O)c2ncccc2c1 (stereo not shown) [Carboxyprimaquine, carboxyprimaquine]",AUC Obs,"[2]; 15 mg QD (Day 14), 0-inf, ref Ward et al., 1985 14",24.7 µg·h/mL
same,Cmax Obs,"[2]; 15 mg QD (Day 14), ref Ward et al., 1985 14",1240 ng/mL
same,AUC Obs,"[2]; 15 mg SD, 0-24 h, ref Mihaly et al., 1985 12",15.1 µg·h/mL
same,AUC Obs,"[2]; 15 mg SD, 0-inf, ref Ward et al., 1985 14",14.2 µg·h/mL
same,Cmax Obs,"[2]; 15 mg SD, ref Ward et al., 1985 14",736 ng/mL
same,AUC Obs,"[2]; 30 mg SD, 0-inf, ref Hanboonkunupakarn et al., 2014 13",44 µg·h/mL
same,AUC Obs,"[2]; 30 mg SD, 0-inf, ref Jittamala et al., 2015 15",47.2 µg·h/mL
same,Cmax Obs,"[2]; 30 mg SD, ref Hanboonkunupakarn et al., 2014 13",959 ng/mL
same,Cmax Obs,"[2]; 30 mg SD, ref Jittamala et al., 2015 15",1040 ng/mL
same,AUC Obs,"[2]; 45 mg SD, 0-24 h, ref Mihaly et al., 1985 12",39.9 µg·h/mL
"COc1ncnc(NS(=O)(=O)c2ccc(N)cc2)c1OC [Sulfadoxine, sulfadoxine]",CL renal,[1]; [10],0.035 L/h
same,CL PO,"[1]; clinically observed oral (in vivo) clearance, pyronaridine: blood, ref amodiaquine Winstanley et al., 1987 9, DEAQ Akande et al., 2015 8, Scarsi et al., 2014 35, Tarning et al., 2012 36, Orrell et al., 2008 37, DHA Na-Bangchang et al., 2004 42, lumefantrine Lefevre et al., 2002 52, Hoglund et al., 2015 53, mefloquine Charles et al., 2007 56, proguanil Jeppesen et al., 1997 34, pyronaridine Jittama",0.039 L/h
same,fe (fraction excreted unchanged in urine),[1]; in vivo,90%
same,AUC Obs,"[2]; 500 mg SD, Caucasian, 0-inf, ref Weidekamm et al., 1982 35",14168 µg·h/mL
same,Cmax Obs,"[2]; 500 mg SD, Caucasian, ref Weidekamm et al., 1982 35",63200 ng/mL
same,AUC Obs,"[2]; 500 mg SD, South-East Asian, 0-inf, ref Sarikabhuti et al., 1988 44",26689 µg·h/mL
same,Cmax Obs,"[2]; 500 mg SD, South-East Asian, ref Sarikabhuti et al., 1988 44",77000 ng/mL
same,AUC Obs,"[2]; 500 mg weekly (20 weeks), 3360-3528 h, ref Schwartz et al., 1987 32",12465 µg·h/mL
same,Cmax Obs,"[2]; 500 mg weekly (20 weeks), ref Schwartz et al., 1987 32",121000 ng/mL
same,AUC Obs,"[2]; 1500 mg SD, 0-inf, ref Karunajeewa et al., 2009 43",33284 µg·h/mL
same,Cmax Obs,"[2]; 1500 mg SD, ref Karunajeewa et al., 2009 43",142000 ng/mL
same,Log D pH 7.4,[3],-0.78
same,fm additional / undefined metabolism,[6],10%
same,fu,"[4]; ref Charman et al., 2020 1",0.036
same,Caco-2 (Papp A-B),"Caco-2 cells; calibrated against propranolol, plasma as medium for atovaquone and piperaquine, ref Charman et al., 2020 1",15 10-6 cm/s
same,Risk as a perpetrator,[5],None identified
same,Risk as a victim,[5],Renally cleared
"Cc1ncc2n1-c1ccc(Cl)cc1C(c1ccccc1F)=NC2 [Midazolam, midazolam]",AUC ratios Sim/Obs,[7],0.91 and 0.83 and 1.22
same,AUC ratio Obs,[8]; [11],≤ 2 fold
same,Cmax ratio Obs,[8]; [11],≤ 2 fold
same,AUC ratio Obs,[8]; [12],1.19
same,Cmax ratio Obs,[8]; [12],1.52
same,AUC ratio Obs,[8]; [13],1.27
same,Cmax ratio Obs,[8]; [13],1.29
same,AUC ratio Obs,[8]; [14],0.87
same,Cmax ratio Obs,[8]; [14],0.66
"C=C[C@H]1C[N@@]2CC[C@H]1C[C@H]2[C@H](O)c1ccnc2ccc(OC)cc12 [Quinine, quinine]",AUC Obs,"[2]; in vivo, 550 mg",50.89 µg·h/mL
same,Cmax Obs,"[2]; in vivo, 550 mg",2848 ng/mL
same,Risk as a perpetrator,[5],CYP2D6 inhibitor
same,Risk as a victim,[5],Substrate of CYP3A4
same,B:P,[9],0.67
"CC[C@H]1OC(=O)[C@H](C)[C@@H](O[C@H]2C[C@@](C)(OC)[C@@H](O)[C@H](C)O2)[C@H](C)[C@@H](O[C@@H]2O[C@H](C)C[C@H](N(C)C)[C@H]2O)[C@](C)(O)C[C@@H](C)CN(C)[C@H](C)[C@@H](O)[C@]1(C)O [Azithromycin, azithromycin]",CL renal,[1]; [10],8.67 L/h
same,AUC Obs,"[2]; in vivo, 500 mg",1.77 µg·h/mL
same,Cmax Obs,"[2]; in vivo, 500 mg",410 ng/mL
same,Log P,[3]; ref PubChem/DrugBank,4.02
same,fu,"[4]; ref atovaquone Mepron Prescribing Information, 2008, Nixon et al., 2013 13, Rolan et al., 1997 14, azithromycin Foulds et al., 1990 20, chloroquine Ofori-Adjei et al., 1986 27, Walker et al., 1983 28, DHA Batty et al., 2004 41 (healthy volunteers), lumefantrine CDER submission 22-269, proguanil Wattanagoon et al., 1987 63, tafenoquine Dow et al., 2020 84",0.69
same,Risk as a perpetrator,[5],CYP3A4 time‐dependent inhibitor
same,Risk as a victim,[5],Cleared by biliary excretion
